Results taken from patent US5439888A, “Antithrombotic agents” (Eli Lilly and Company, priority 1994, dated 1995).

Columns and labels:
[1] = biological target: Bovine Thrombin; test: Inhibition of thrombin amidase activity (chromogenic substrate), Kass; type: biochemical; settings: equilibrium association constant, mean over a range of concentrations; substrate N-benzoyl-Phe-Val-Arg-p-nitroanilide
Protocol: (§1) The assay is carried out by mixing 50 μL buffer (0.03M Tris, 0.15M NaCl ,pH 7.4) with 25 μL of bovine thrombin or human thrombin solution (0.21 mg/mL of thrombostat bovine thrombin, Parke-Davis, or purified human thrombin, Enzyme Research Laboratories, South Bend, Ind., at about 8 NIH units/mL, in the same buffer) and 25 μL of test compound in a solvent (in 50% aqueous methanol, v:v). The 150 μL of an aqueous solution of the chromogenic substrate (at 0.25 mg/mL) are added and the rates of hydrolysis of the substrate are measured by monitoring the reactions at 405 nm for the release of p-nitroaniline. Standard curves are constructed by plotting free thrombin concentration against hydrolysis rate. The hydrolysis rates observed with test compounds are then converted to "free thrombin" values in the respective assays by use of the standard curves. The bound thrombin (bound to test compound) is calculated by subtracting the amount of free thrombin observed in each assay from the known initial amount of thrombin used in the assay. The amount of free inhibitor in each assay is calculated by subtracting the number of moles of bound thrombin from the number of moles of added inhibitor (test compound). […]
Kass is calculated for a range of concentrations of test compounds and the mean value is reported in units of liter per mole.

[2] = biological target: Trypsin; test: Serine protease selectivity assay (chromogenic substrate), Kass, trypsin; type: biochemical, bovine; settings: equilibrium association constant; substrate N-Benzoyl-Phe-Val-Arg-p-nitroanilide
Protocol: [The procedure below names another target; the source says it served here with some conditions changed.] as §1
(§2) Kass is calculated for a range of concentrations of test compounds and the mean value is reported in units of liter per mole. […]

[3] = biological target: Plasmin; test: Serine protease selectivity assay (chromogenic substrate), Kass, plasmin; type: biochemical, human; settings: equilibrium association constant; substrate H-D-Val-Leu-Lys-p-nitroanilide
Protocol: [The procedure below names another target; the source says it served here with some conditions changed.] as §1, §2

[4] = biological target: factor Xa; test: Serine protease selectivity assay (chromogenic substrate), Kass, factor Xa; type: biochemical, human; settings: equilibrium association constant; substrate N-Benzoyl-Ile-Glu-Gly-Arg-p-nitroanilide
Protocol: [The procedure below names another target; the source says it served here with some conditions changed.] as §1, §2

[5] = system: t-PA; test: Serine protease selectivity assay (chromogenic substrate), Kass, t-PA; type: biochemical; settings: equilibrium association constant; substrate H-D-Ile-Pro-Arg-p-nitroanilide
Protocol: [The procedure below names another target; the source says it served here with some conditions changed.] as §1, §2

With `CN[C@H](Cc1ccccc1)C(=O)N1CCC[C@H]1C(=O)N[C@](C)(C=O)CCCNC(=N)N` [Example 1, D-N-methylphenylalanyl-L-prolinyl-L-α-methylarginine aldehyde] the Kd [1] was 0.909 µM, the Kd [2] was 250 µM and the Kd [3] was 2000 µM. For the same molecule, the Kd [4] was 3330 µM and the “Kass t-PA” value [5] was 0 × 10^6 (L/mole).
For `C[C@@](C=O)(CCCNC(=N)N)NC(=O)[C@@H]1CCCN1C(=O)[C@@H]1NCCc2ccccc21` [Example 2, D-1-(1,2,3,4-tetrahydroisoquinolinylcarboxyl)-L-prolinyl-L -α-methylarginine aldehyde], the Kd [1] was 4.55 µM, the Kd [2] was 71.4 µM and the Kd [3] was 1250 µM. The Kd [4] was 1000 µM and the “Kass t-PA” value [5] was 0 × 10^6 (L/mole).
